According to patent publication US20210206817A1, “Metabolically Stable Apelin Analogs in the Treatment of Disease Mediated by the Apelin Receptor” (priority 2014, published 2021):
Like-named read-outs stand apart in the source and are kept apart here. Where a SMILES comes first, the peptide text is derived from it.

Key:
rat apelin receptor-EGFP [1] = target: T1, rat apelin receptor-EGFP (Rattus norvegicus, UniProt Q9JHG3); assay: [125I]pE13F radioligand binding on CHO membrane preparations
T1 construct: expressed in transfected cells
T1 sequence (Q9JHG3 1-377): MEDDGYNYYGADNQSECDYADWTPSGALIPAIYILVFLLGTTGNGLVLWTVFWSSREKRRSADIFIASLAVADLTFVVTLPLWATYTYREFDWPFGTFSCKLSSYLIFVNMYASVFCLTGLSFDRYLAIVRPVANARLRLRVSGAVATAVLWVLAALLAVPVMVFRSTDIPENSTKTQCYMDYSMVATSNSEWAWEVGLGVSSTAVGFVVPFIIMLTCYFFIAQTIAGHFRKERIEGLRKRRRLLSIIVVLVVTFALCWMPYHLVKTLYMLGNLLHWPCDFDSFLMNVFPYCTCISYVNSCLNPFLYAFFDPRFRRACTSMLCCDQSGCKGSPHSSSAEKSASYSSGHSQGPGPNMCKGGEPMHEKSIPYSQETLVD
Description: Crude membrane preparation from CHO stably expressing the wild-type rat apelin receptor-EGFP, were prepared as previously described (39). […] The reaction was stopped by adding ice-cold binding buffer and filtered through glass microfiber filters (Whatman GF/C filters). Radioactivity was counted in Wizard 1470 Wallac gamma counter (Perkin Elmer, Turku, Finland).

rat apelin receptor-EGFP [2] = target: T1, rat apelin receptor-EGFP; assay: Inhibition of forskolin-induced cAMP production (HTRF); type: cell-based
Description: cAMP was quantified using the cAMP dynamic 2 assay kit (Cisbio Bioassays, Codolet, France) based on homogeneous time-resolved fluorescence (HTRF) technology. The stimulation was done in the stimulation buffer (HBSS, 5 mM Hepes, 0.1% BSA stabilizer, 1 mM IBMX, pH 7.4). Briefly, 2,000/well CHO cells stably expressing the rat apelin receptor-EGFP were added into 384-well plate and stimulated with 10^−6 M forskolin (FSK) and increasing concentrations (10^−14 to 10^−4 M) of apelins or its analogs for 30 min at room temperature. Cells were then lyzed, and cAMP levels were determined following manufacturer instructions.

in vitro = assay: in vitro
Description: For each compound, the stock solution (100 μM in water) was diluted in plasma to a final incubation concentration of 5 μM. The incubation at 37° C. was stopped respectively at to and 4 h by adding one volume of ice cold acetonitrile containing 0.1% trifluoroacetic acid. The sample was vortexed for 1 min and then centrifuged at 4° C. before LC-MS injection of the supernatant. Analyses were performed on a Kinetex RP-C18 column (2.6 μm, 100 Å, 50×4.6 mm) using a linear gradient (solvent B in solvent A, solvent A: water/0.05% TFA; solvent B: acetonitrile; flow rate of 2 mL·min^−1: detection at 358 nm). The percentage of remaining test compound relative to t0 was measured by monitoring the peak area of the chromatogram.

rat apelin receptor-EGFP [3] = target: T1, rat apelin receptor-EGFP; assay: Apelin receptor-EGFP internalization, confocal microscopy; type: cell-based
Description: The internalization assay was performed as described previously with CHO cells stably expressing the rat apelin receptor-EGFP (43). […] Cells were then mounted in Aquapolymount (Polysciences, Warrington, Pa., USA) for confocal microscopic analysis (Sec (42) for details).

rat apelin receptor-EGFP [4] = target: T1, rat apelin receptor-EGFP; assay: ERK1/2 phosphorylation (Alphascreen); type: cell-based
Description: ERK1/2 phosphorylation was then monitored by Alphascreen technology.

[5] = tested on: rat aortic rings precontracted by noradrenaline (NA); assay: Isometric tension of aortic rings precontracted by noradrenaline
Description: The experiments were performed in rat aortic rings as previously described (39). […] The aortas were cleaned of excess connective tissue and fat and cut into rings of approximately 3-4 mm in length. Special care was taken to avoid damaging the luminal surface of the endothelium. […] One end of the aortic ring was connected to a tissue holder and the other to an isometric force transducer (EMKA Technologies, Paris, France). […] During equilibration period, the rings were washed every 30 min. Then, a first relaxation to acetylcholine (Ach, 10^−4 mol/L) was implemented to check the integrity or the absence of the endothelium in rings precontracted with NA (3×10^−8 mol/L). After rinsing with PSS to baseline tension, rings were equilibrated for 90 min. […] Each concentration of the drug was added at the maximal effect of the precedent concentration. The concentration-response curves were continuously recorded on a PC by means of IOX v 2.4 (EMKA Technologies, Paris) for further analysis (Datanalyst v2.1, EMKA Technologies, Paris).

[6] = tested on: rat glomerular arterioles precontracted by Angiotensin II (AngII); assay: Diameter of glomerular arterioles precontracted by angiotensin II
Description: The left kidney of male rats was prepared for microdissection of arterioles as previously described (44). Glomerular arterioles were isolated under stereomicroscopic observation. The afferent and muscular efferent arterioles were isolated with the glomerulus and identify according their morphology and localization in the inner renal cortex as previously described by Helou et al. […] For these experiments afferent and muscular efferent arterioles were microdissected attached to the gomeruli. […] Arteriolar diameters were measured with Adobe Photoshop CS. Diameters were measured on a distance equal to about 100 μm upstream of the glomerulus and triplicate were performed for each arteriole. Calibration was made using a stage micrometer. The average diameter for each experimental condition was used for statistical analysis.

[7] = tested on: anaesthesized normotensive Wistar rats; assay: Arterial blood pressure after i.v. injection; type: in vivo, rat
Description: The resulting solution was administered to the rats via a catheter inserted into the right femoral vein, and was immediately followed by 0.2 ml Krebs buffer alone to flush the venous catheter. An additional catheter was inserted into the right femoral artery, as previously described (47), for the monitoring of mean arterial blood pressure (MBP) as previously described (48). The arterial catheter was connected to a COBE CDX III pressure transducer (Phymep, Paris, France) linked to the Maclab system (Phymep, Paris, France). HR measurement was triggered by the blood pressure signal. BP was continuously recorded throughout the experiment. […] Mean AUC for each group were then calculated. Unpaired Student's t test was used to determine whether BP observed in response to substances administered […].) has statistically significant difference.

[8] = tested on: water-deprived or euhydrated mice; assay: Plasma AVP after i.c.v. injection (RIA); type: in vivo, mouse
Description: Animals were killed 1 min after the injection, and trunk blood (0.5-1 ml) was collected in chilled tubes containing 50 μl of 0.3 M EDTA pH 7.4. […] RIA kit (Peninsula Laboratories International Inc, San Carlo, USA).

[9] = [125I]pE13F binding I (nM), Table 2
[10] = Table 2, read-out: cAMP production IC50
[11] = 15 nmol i.v., listed as JFM V-01961

CCCCCCCCCCCCCCCC(=O)N[C@@H](CCCCN)C(=O)N[C@@H](Cc1ccccc1)C(=O)N[C@@H](CCCNC(=N)N)C(=O)N[C@@H](CCCNC(=N)N)C(=O)N[C@@H](CCC(N)=O)C(=O)N[C@@H](CCCNC(=N)N)C(=O)N1CCC[C@H]1C(=O)N[C@@H](CCCNC(=N)N)C(=O)N[C@@H](CC(C)C)C(=O)N[C@@H](CO)C(=O)N[C@@H](Cc1c[nH]cn1)C(=O)N[C@@H](CCCCN)C(=O)NCC(=O)N1CCC[C@H]1C(=O)N[C@@H](CCSC)C(=O)N1CCC[C@H]1C(=O)N[C@@H](Cc1ccccc1)C(=O)O [JFM V-0196A]
Ki (rat apelin receptor-EGFP [1]; [9]): 0.76 ± 0.13 nM | IC50 (rat apelin receptor-EGFP [2]; [10]): 3.9 ± 1.5 nM | starting peptide remaining after 4 h (in vitro; mouse, plasma): 100% of star-ring peptide after 4 h

CSCC[C@H](NC(=O)[C@@H]1CCCN1C(=O)CNC(=O)[C@H](CCCCN)NC(=O)[C@H](Cc1c[nH]cn1)NC(=O)[C@H](CO)NC(=O)[C@H](CC(C)C)NC(=O)[C@H](CCCNC(=N)N)NC(=O)[C@@H]1CCCN1C(=O)[C@H](CCCNC(=N)N)NC(=O)[C@H](CCC(N)=O)NC(=O)[C@H](CCCNC(=N)N)NC(=O)[C@H](CCCNC(=N)N)NC(=O)[C@H](Cc1ccccc1)NC(=O)[C@H](CCCCN)NC(=O)CCC(F)(F)C(F)(F)C(F)(F)C(F)(F)C(F)(F)C(F)(F)C(F)(F)C(F)(F)F)C(=O)N1CCC[C@H]1C(=O)N[C@@H](Cc1ccccc1)C(=O)O [JFM V-0196B]
Ki (rat apelin receptor-EGFP [1]; Binding affinity Ki (nM), Table 7, additional experiments vs Table 2): 0.08 ± 0.01 nM | Ki (rat apelin receptor-EGFP [1]; Ki for the apelin receptor (affinity), competition with [125I]pE13F, CHO membranes): 0.2 nM | Ki (rat apelin receptor-EGFP [1]; [9]): 0.21 ± 0.27 nM | IC50 (rat apelin receptor-EGFP [2]): 3.13 ± 1.43 nM | EC50 (rat apelin receptor-EGFP [3]): 0.41 ± 0.16 nM | EC50 (rat apelin receptor-EGFP [4]): 0.89 ± 0.61 nM | starting peptide remaining after 4 h (in vitro; Table 4, mouse plasma, 37° C.): 100% of starting peptide after 4 h | half-life at 5 μM (in vitro; mouse, plasma): > 240 min | vasorelaxing effect at maximal concentration ([5]; 100 μM): 60±3% | arteriolar diameter after application to Ang II-precontracted arterioles ([6]; 500 nM, 1 nM Ang II, from 12.97±0.50 μm): 13.88±0.45 μm | vasorelaxant effect in the presence of L-NAME ([6]; L-NAME, NO synthase inhibitor): not significantly changed | duration of the hypotensive effect, fold higher than K17F ([7]; 15 nmol i.v.): 27 fold | maximal hypotensive response, fold higher than K17F ([7]; 15 nmol i.v.): 9 fold | BP decrease at the plateau value after 30 min ([7]; 15 nmol i.v., after 30 min): 21 mmHg | duration of the hypotensive effect, fold higher than K17F [7, 11]: 8 fold | maximal hypotensive response, fold higher than K17F [7, 11]: 6.7 fold | time of maximal hypotensive response after injection ([7]; 15 nmol/rat i.v.): 10 min | Maximal decrease in BP (mmHg) ([7]; Table 5, 15 nmol i.v.): −52 mmHg | Time For maximal BP decrease ([7]; Table 5, 15 nmol i.v.): 10 min | Time to return to a plateau value ([7]; Table 5, 15 nmol i.v.): 33 min | plateau value reached (in brackets) ([7]; Table 5, 15 nmol i.v.): −21 mmHg | effect on plasma AVP levels in euhydrated mice ([8]; euhydrated mice, supramaximal dose 1 μg i.c.v.): no effect on plasma AVP levels | maximal decrease in AVP release ([8]; water-deprived mice, 0.01 μg i.c.v.): −75%

CCCC[C@H](NC(=O)[C@@H]1CCCN1C(=O)[C@@H](C)NC(=O)[C@H](CCCCN)NC(=O)C(C)(C)NC(=O)[C@H](CO)NC(=O)[C@@H](CC(C)C)NC(=O)[C@H](CCCNC(=N)N)NC(=O)[C@@H]1CCCN1C(=O)[C@H](CCCNC(=N)N)NC(C)=O)C(=O)N1CCC[C@H]1C(=O)N[C@@H](Cc1ccc(Br)cc1)C(=O)O [P26, N-Acetyl-Arg-Pro-Arg-DLeu-Ser-Aib-Lys-DAla-Pro-Nle-Pro-(4-Br)Phe-OH] (HELM PEPTIDE1{[ac].R.P.R.[dL].S.[Aib].K.[dA].P.[Nle].P.[O=C(O)[C@H](Cc1ccc(Br)cc1)N[*:1]]}$$$$V2.0)
Ki (rat apelin receptor-EGFP [1]; [9]): 2.11 ± 0.4 nM | IC50 (rat apelin receptor-EGFP [2]; 10^−6 M forskolin, read-out: IC50 inhibition of forskolin-induced cAMP production): 4.4 ± 0.9 nM | IC50 (rat apelin receptor-EGFP [2]; [10]): 2.22 ± 1 nM | EC50 (rat apelin receptor-EGFP [3]; 20 min, read-out: EC50 apelin receptor internalization): 2.11 ± 1.14 nM | ERK1/2 EC50 times higher than K17F (rat apelin receptor-EGFP [4]): 18 times | EC50 (rat apelin receptor-EGFP [4]; 10 min, read-out: EC50 ERK1/2 phosphorylation): 71.3 ± 19.1 nM | EC50 (rat apelin receptor-EGFP [4]; Table 7, read-out: ERK1/2 phosphorylation EC50): 72.1 ± 19.6 nM | half-life at 5 μM (in vitro; mouse, plasma): 86 min | maximal relaxant effect ([5]; precontraction 3×10^−6 M NA): 93±3% | potency (pD2) of relaxation ([5]; precontraction 3×10^−6 M NA): 6.27±0.42
